Data set [1] deals with T1, purified catalytic domain of recombinant human TACE (rhTACEc) (Homo sapiens, UniProt P78536, N452Q/S266A).
T1 construct: 6xHis (C); made in house; host or cells: baculovirus/Hi5 insect cells
As to the kind of experiment: TACE kinetic assay: cleavage of internally quenched peptide substrate TNF-FRET 2 (Ki). The class given is biochemical. The note with it: TNF-FRET 2 substrate.

The nature of data set [2]: Area under the curve determinations of plasma levels in rats (rrAUC), oral 10 mg/kg. The class given is in vivo. The note with it: rat, plasma, blood collected 0.5-6 h post-dosing, read-out: RR AUC (rapid rat AUC, rrAUC).
In data set [3] the test system is TNF-α production from human whole blood. As to the kind of experiment: Inhibition of TNF-α production from human whole blood (hWBA), LPS stimulated, ELISA. Format: cell-based. The note with it: Homo sapiens, human whole blood diluted 1:1, LPS stimulated, TNF-α by ELISA; read-out: hWBA (IC50).

14 molecules from patent US8569336B2, “Compounds for the treatment of inflammatory disorders” (priority 2008, dated 2013) can be followed below.

Like-named read-outs stand apart in the source and are kept apart here.

One may read the Ki as a measure of affinity in units of concentration, obtained from inhibition or displacement. For orientation: AUC means the area under the concentration-time curve, a measure of exposure. The term IC50 denotes the concentration that inhibits the measured activity by half.

T1 sequence (P78536 215-477 S266A/N452Q): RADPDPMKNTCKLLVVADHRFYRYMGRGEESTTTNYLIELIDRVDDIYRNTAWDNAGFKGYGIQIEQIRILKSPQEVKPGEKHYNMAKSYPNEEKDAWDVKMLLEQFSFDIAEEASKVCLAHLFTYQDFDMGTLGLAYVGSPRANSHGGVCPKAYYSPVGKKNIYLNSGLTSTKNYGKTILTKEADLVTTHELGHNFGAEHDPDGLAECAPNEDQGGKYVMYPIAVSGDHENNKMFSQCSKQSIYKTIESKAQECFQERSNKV

For the molecule `COc1ccc2c(c1)C(=O)N(C[C@@]1(c3cc4nc(C#N)ccc4o3)NC(=O)NC1=O)C2` [Compound 2473], the Ki in data set [1] (read-out: Ki) was 0.32 nM. Further, the AUC in data set [2] was 5.69 µM·h. Besides, the IC50 in data set [3] came out at 564 nM.
Regarding `COC(=O)Nc1ccc2oc([C@]3(CN4Cc5ccc(OC)cc5C4=O)NC(=O)NC3=O)cc2n1` [Compound 2474], in data set [1] (read-out: Ki), the Ki came to 0.52 nM. In data set [2], the AUC stood at 15.5 µM·h. Also, the IC50 in data set [3] is 549 nM.
With `CNS(=O)(=O)c1cc2oc([C@]3(CN4Cc5ccc(OC)cc5C4=O)NC(=O)NC3=O)cc2cc1C` [Compound 2480], the Ki in data set [1] (Ki) worked out at 0.43 nM. Moreover, the area under the curve (AUC) in data set [2] worked out at 0.212 µM·h. The half-inhibitory concentration (IC50) in data set [3] worked out at 1390 nM.
Regarding `CNS(=O)(=O)c1ccc2oc([C@]3(CN4Cc5ccc(OC)cc5C4=O)NC(=O)NC3=O)cc2c1` [Compound 2481], the Ki in data set [1] (read-out: Ki) amounted to 0.16 nM. Moreover, the AUC in data set [2] worked out at 0.89 µM·h. Moreover, in data set [3], the IC50 amounted to 310 nM.
For the molecule `COc1ccc2c(c1)C(=O)N(C[C@@]1(c3cc4cnc(-c5cccc(C#N)c5)cc4o3)NC(=O)NC1=O)C2` [Compound 2489], the Ki in data set [1] (read-out: Ki) amounted to 0.799 nM. In data set [2], the area under the curve (AUC) was determined as 10.6 µM·h. Also, the IC50 in data set [3] was found to be 8420 nM.
On the same counts, the results for `COc1ccc2c(c1F)C(=O)N(C[C@@]1(c3cc4cc5c(cc4o3)C(=O)NCC5)NC(=O)NC1=O)C2` [Compound 2491] are 0.195 nM, 0.972 µM·h and 109 nM.
For the molecule `COc1ccc2c(c1F)C(=O)N(C[C@@]1(c3cc4cc5c(c(C)c4o3)C(=O)NC5)NC(=O)NC1=O)C2` [Compound 2497], the Ki in data set [1] (read-out: Ki) stood at 0.29 nM. Moreover, in data set [2], the area under the curve (AUC) was 1.05 µM·h. Further, the IC50 in data set [3] came to 673 nM.
Regarding `COc1ccc2c(c1F)C(=O)N(C[C@@]1(c3cc4cc5c(c(F)c4o3)C(=O)NC5)NC(=O)NC1=O)C2` [Compound 2499], the inhibition constant Ki in data set [1] (read-out: Ki) was 0.33 nM. Further, the AUC in data set [2] worked out at 1.08 µM·h. The IC50 in data set [3] turned out to be 72 nM.
On to `COc1ccc2c(c1F)C(=O)N(C[C@@]1(c3cc4cc(F)c5c(c4o3)CNC5=O)NC(=O)NC1=O)C2` [Compound 2501], for which the inhibitory constant (Ki) in data set [1] (read-out: Ki) was 0.86 nM. Also, in data set [2], the AUC was determined as 0.448 µM·h. Besides, the IC50 in data set [3] amounted to 148 nM.
`COc1ccc2c(c1F)C(=O)N(C[C@@]1(c3cc4cc5c(c(F)c4o3)C(=O)N(C)C5)NC(=O)NC1=O)C2` [Compound 2502]: the Ki in data set [1] (read-out: Ki) was determined as 0.69 nM. The area under the curve (AUC) in data set [2] worked out at 3.12 µM·h. The IC50 in data set [3] is 381 nM.
On to `COc1ccc2c(c1)C(=O)N(C[C@@]1(c3cc4c5c(ccc4o3)CNC5=O)NC(=O)NC1=O)C2` [Compound 2503], for which, in data set [1] (read-out: Ki), the Ki came to 0.36 nM. Besides, the AUC in data set [2] came out at 0.304 µM·h. Besides, in data set [3], the IC50 was 170 nM.
In the case of `COc1ccc2c(c1)C(=O)N(C[C@@]1(c3cc4c5c(ccc4o3)C(=O)NC5)NC(=O)NC1=O)C2` [Compound 2504], the Ki in data set [1] (read-out: Ki) stood at 0.45 nM. Besides, the AUC in data set [2] turned out to be 0.181 µM·h. Besides, the IC50 in data set [3] is 189 nM.
For the molecule `COc1ccc2c(c1F)C(=O)N(C[C@@]1(c3cc4c5c(ccc4o3)CNC5=O)NC(=O)NC1=O)C2` [Compound 2505], in data set [1] (read-out: Ki), the Ki turned out to be 0.6 nM. The area under the curve (AUC) in data set [2] was 1.12 µM·h. Besides, the IC50 in data set [3] is 151 nM.
In the case of `COc1ccc2c(c1F)C(=O)N(C[C@@]1(c3cc4c5c(ccc4o3)C(=O)NC5)NC(=O)NC1=O)C2` [Compound 2506], the Ki in data set [1] (read-out: Ki) came out at 0.323 nM. The AUC in data set [2] stood at 0.437 µM·h. In addition, in data set [3], the IC50 turned out to be 156 nM.
